In patent US11760784B2, “Compositions comprising PEDF-derived short peptides and uses thereof” (BRIM Biotechnology, Inc., priority 2016, dated 2023):
Entries after “also recorded” stand apart in the source; their conditions may differ.

Assays:
C2C12 cells = test: Cell viability of C2C12 cells in culture (MTT assay), alanine scanning; assay type: cell-based; details: C2C12 cell cultures (FIG. 10)
Method: This was tested with cell viability in cell cultures. […] Cell viability may be assessed with staining and cell number counts or with MTT assays. These techniques are well known in the art.

[1] = tested on: desiccating stress-induced dry eye; test: Corneal fluorescein staining in desiccating stress-induced dry eye (CEC) mice; assay type: in vivo, C57BL/6 mice; details: therapeutic: CEC 14 days to induce dry eye, then peptide on the eyes for 5 days
Method: In an animal model for dry eye diseases, mice were placed in a controlled environment chamber (CEC) to induce dry eyes as previously described (Barabino et al., 2005). Mice placed in the CEC were exposed to a relative humidity (RH)<25%, temperature of 20 to 22° C., with an airflow of 15 L/min, 12 hours per day. Non-Stressed mice were kept in a normal environment (RH >50%, no air flow, temperature of 21-23° C.) for the same duration. After 14 days, non-stressed mice were treated with vehicle, while the stressed mice were treated with either a test peptide (e.g., the 29mer PDSP) or vehicle solution (Vehicle group) for 5 days. Then, the cornea was examined with fluorescein staining.
Seven to 8-week-old female C57BL/6 mice were used for these experiments. Experimental procedures were approved by the Mackay Memorial Hospital Review Board and conducted according to the ARVO Statement for the Use of Animals in Ophthalmic and Vision Research.
(§1) Dry eye was induced by placing mice in a controlled environment chamber (CEC) as previously described (Barabino et al., 2005). Briefly, mice placed in the CEC were exposed to a relative humidity (RH)<25%, temperature of 20 to 22° C., and airflow of 15 L/min, 12 hours per day. Non-stressed (NS) mice without stress-induced dry eye were kept in a normal environment (RH >50%, no air flow, temperature of 21-23° C.) for the same duration. Corneal fluorescein staining and
Animals were anesthetized by an intraperitoneal injection of a mixture of zoletil (6 mg/kg) and xylazine (3 mg/kg). Corneal epithelial injury was determined by staining with topical fluorescein (Fluor-I-Strip, Ayerst Laboratories, Philadelphia, Pa.). Corneal fluorescein staining was examined with a slit-lamp biomicroscope under cobalt blue light and photographed with a digital camera. Dye staining of the cornea was scored in a manner as follows: score 0 for no punctuate staining; score 1 when less than one third of the cornea was stained; score 2 when two thirds or less was stained; and score 3 when more than two thirds was stained (Horwath-Winter J 2013).
To determine whether PDSP have therapeutic effects in a desiccating stress (DS)-induced ocular surface defects, mice were housed at controlled environment chamber (CEC) for 14 days to create ocular surface disruption. After 14 days in CEC, we used mice with fluorescence scores that are above 2 for the first experiments (FIG. 1A). Subsequently, dry eyes were treated topically with PDSP at 25-200 μM (3 times/day) or PDSP vehicle (1% CMC in BSS) for another 5 days while maintaining the same desiccating stress protocol.
To investigate whether the PDSP can suppress DS-induced corneal epithelial disruption, we applied the 14-day desiccating stress protocol to mice, and treated these mice topically with PDSP 3 times a day.

[2] = tested on: desiccating stress-induced dry eye; test: Tear production by phenol red thread test in CEC dry eye mice; assay type: in vivo, C57BL/6 mice; details: for ability to induce tear production (alanine scanning of the 29mer): CEC dry eye mice, phenol red thread method (FIG. 9)
Method: as §1
Tear production was measured with phenol red-impregnated cotton threads (Zone-Quick; Oasis, Glendora, CA). The validity of this test in mice was performed as previously described (Dursun et al., 2002). The threads were held with jeweler forceps and placed in the lateral canthus for 60 seconds. The tear production is expressed in millimeters of thread that is wet by the tear and turned red.
To determine whether PDSP have therapeutic effects in a desiccating stress (DS)-induced ocular surface defects, mice were housed at controlled environment chamber (CEC) for 14 days to create ocular surface disruption. After 14 days in CEC, we used mice with fluorescence scores that are above 2 for the first experiments (FIG. 1A). […]

[3] = tested on: desiccating stress-induced dry eye; test: Corneal fluorescein staining in desiccating stress-induced dry eye (CEC) mice; assay type: in vivo, C57BL/6 mice; details: CEC 14 days, then peptide for 3 days (FIG. 11); listed as mouse PDSP

Substance	ability to sustain/enhance viabilities of the cells (alanine scanning of the 29mer) (C2C12 cells)	corneal surface damage by fluorescein staining [1]	ability to induce tear production (alanine scanning of the 29mer) [2]	corneal damage by corneal fluorescein staining, human vs mouse 29mer [3]	tear production (phenol red thread), human vs mouse PDSP ([2]; CEC 14 days, then peptide for 3 days (FIG. 12), listed as mouse PDSP)
A96G: human PDSP 29mer with glycine substitution at residue 4 (A96) (Ac-SLGGEQRTESIIHRALYYDLISSPDIHGT-NH2; UniProt P36955 93-121, looked up, variant A96G)	substantially abolished	substantial loss of PDSP activity	substantial losses of abilities of PDSP to induce tear production	–	–
R106A: human PDSP 29mer with alanine substitution at residue 14 (R106) (SLGAEQRTESIIHAALYYDLISSPDIHGT; UniProt P36955 93-121, looked up, variant R106A)	substantially abolished	substantial loss of PDSP activity	substantial losses of abilities of PDSP to induce tear production	–	–
Q98A: human PDSP 29mer with alanine substitution at residue 6 (Q98) (SLGAEARTESIIHRALYYDLISSPDIHGT; UniProt P36955 93-121, looked up, variant Q98A)	substantially abolished	substantial loss of PDSP activity	substantial losses of abilities of PDSP to induce tear production	–	–
I104A: human PDSP 29mer with alanine substitution at residue 12 (I104) (SLGAEQRTESIAHRALYYDLISSPDIHGT; UniProt P36955 93-121, looked up, variant I104A)	substantially abolished	substantial loss of PDSP activity	substantial losses of abilities of PDSP to induce tear production	–	–
moPDSP 29mer: corresponding mouse sequence SLGAEHRTESVIHRALYYDLITNPDIHST (SEQ ID NO:5) (listed as Mus musculus)	–	–	–	capable of restore the ocular surface damages	capable of restore; also recorded: improved tear productions to the same extent
